Results on 2 compounds are retold here after patent publication US4925869A, “Therapeutic agents” (Imperial Chemical Industries PLC, priority 1986, dated 1990).

Format in all cases: cell-based
Experiment [1] deals with T1, rat aortal strip (Rattus norvegicus, UniProt P34978).
T1 construct: the rat aortal strip model developed by Kennedy et alia; from tissue; host or cells: rat aorta strip
T1 sequence (P34978 1-341): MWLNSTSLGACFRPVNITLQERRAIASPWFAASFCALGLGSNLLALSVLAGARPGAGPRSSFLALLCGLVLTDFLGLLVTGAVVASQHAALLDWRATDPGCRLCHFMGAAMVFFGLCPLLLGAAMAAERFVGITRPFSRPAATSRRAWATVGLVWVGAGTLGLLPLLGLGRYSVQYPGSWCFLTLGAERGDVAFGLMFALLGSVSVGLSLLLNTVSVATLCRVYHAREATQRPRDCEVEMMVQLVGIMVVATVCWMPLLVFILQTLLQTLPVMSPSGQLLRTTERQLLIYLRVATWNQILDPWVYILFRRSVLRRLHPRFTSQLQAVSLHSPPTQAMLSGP
Briefly: rat aortal strip model, antagonism of the TXA2 mimetic U46619 (test (a)). As to conditions: agonist U46619, procedure (a), read-out: pA2 (converted). An excerpt:
As stated earlier, the compounds of formula I are antagonists of one or more of the actions of TXA2, for example certain of its actions on blood platelets, the vasculature and/or the lung.
(a) The rabbit aortal strip model devised by Piper and Vane (Nature, 1969, 223, 29-35) or the rat aortal strip model developed by Kennedy et alia (Prostaglandins, 1982, 24, 667-689), using as agonist the TXA2 mimetic agent known as U46619 (described by R. L. Jones et alia. in "Chemistry, Biochemistry and Pharmacological Activity of Prostanoids" edited by S. M. Roberts and F. Scheinmann, at page 211, Pergamon Press, 1979);

Experiment [2] has as its target T2, human, citrated platelet rich plasma (Homo sapiens, UniProt P21731).
T2 construct: aggregating human, citrated platelet rich plasma; from tissue; host or cells: human citrated platelet rich plasma (native platelets)
T2 sequence (P21731 1-343): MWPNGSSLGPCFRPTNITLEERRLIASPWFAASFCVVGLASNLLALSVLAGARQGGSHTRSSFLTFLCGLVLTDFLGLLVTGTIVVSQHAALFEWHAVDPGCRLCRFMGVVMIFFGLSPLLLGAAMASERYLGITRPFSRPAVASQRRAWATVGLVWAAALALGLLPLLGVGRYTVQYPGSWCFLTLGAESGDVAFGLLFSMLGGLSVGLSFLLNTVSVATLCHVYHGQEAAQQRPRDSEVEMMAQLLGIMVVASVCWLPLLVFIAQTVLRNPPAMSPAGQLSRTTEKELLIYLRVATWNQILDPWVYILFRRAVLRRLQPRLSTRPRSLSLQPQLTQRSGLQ
Description: blood platelet aggregation test, U46619-induced aggregation of human citrated platelet rich plasma (test (b)). As to conditions: U46619, procedure (b). An excerpt: (b) a blood platelet aggregation test based on that described by Born (Nature, 1962, 194, 927-929) and involving:
(i) aggregating human, citrated platelet rich plasma by addition of the TXA2 mimetic agent U46619 so that a dose-response curve is generated:
(ii) generating a dose-response curve for U46619 stimulated platelet aggregation in the presence of increasing amounts of test compound (generally in the range, 10^-5 M to 10^-10 M); and
(iii) calculating a KB value indicating potency of TXA2 antagonism for the test compound, averaged over several concentrations, from the calculated 50% response value for U46619 aggregation in the presence and absence of test compound: and (c) a bronchoconstriction test involving measuring the inhibition by test compound of the bronchoconstriction induced in the Konzett-Rossler, anaesthetised guinea-pig model (as modified by Collier and James, Brit. J. Pharmacol., 1967, 30, 283-307) by intravenous administration of the TXA2 mimetic agent, U46619 and involving: […]

Experiment [3] has as its system human platelets. Description: inhibition of arachidonic acid induced aggregation of human platelets. The text has this: The beneficial effects of combining one of the novel TXA2 antagonists of formula I defined hereinabove with a TXA2 synthetase inhibitor may be illustrated in vitro, for example by evaluating their effects in inhibiting arachidonic acid induced aggregation of human platelets, using standard procedures well known in the art.

Take `CC(C)(Oc1ccccc1)[C@H]1OC[C@@H](C/C=C\CCC(=O)O)[C@@H](c2ccccc2O)O1` (relative stereo) [Example 6, 4(Z) 6 ([2,4,5 cis]4-o-hydroxyphenyl-2-[1-methyl-1-phenoxyethyl] -1,3-dioxan-5-yl)hexenoic acid]: the Kb in experiment [1] is 0.195 nM; in experiment [2], 17.5 nM. In addition, the “inhibition of arachidonic acid induced aggregation of human platelets” value in experiment [3] (tested alone at 10^-9 M) is on record as “no significant inhibition”.

For the compound `O=C(O)c1ccc(OCCn2ccnc2)cc1` [dazoxiben, reference compound], the “inhibition of arachidonic acid induced aggregation of human platelets” value in experiment [3] (tested alone at 10^-4 M) is listed as “no significant inhibition”.
